Data from paper PMC6637691, “Phenothiazinium Dyes Are Active against Trypanosoma cruzi In Vitro” (BioMed Research International, 2019).

How the values were obtained:
noninfected LLCMK2 cells = experiment: ROS measurement (DCFDA, flow cytometry) in noninfected cells; assay type: cell-based; details: 4 × IC50, 2 h
Experimental: (§1) LLCMK2 cells in 75 cm^2 flasks were cultivated to confluence and were infected with 1 × 10^7 T. cruzi trypomastigotes. […] The infected cells were centrifuged for 10 min, 3000 g, and washed with PBS and suspended in trypsin to separate cells and parasites. The cultures were distributed in 1.5 ml microtubes (~ 1 × 10^6 trypomastigotes/tube) and incubated with 4 × IC50 of compounds at 37°C, 5% CO2 for 2 h. Menadione (MN), a classic inducer of cellular oxidative stress, was used as the positive control of ROS production as previously described in [14]. After treatment, the cultures were centrifuged for 10 minutes, 3000 g, and washed with PBS and suspended in trypsin. […] Similarly, the mitochondrial membrane potential was determined after incubation with 5 μM JC-1 under the same conditions. […] In polarized mitochondria, the dye forms J-aggregates, emitting red fluorescence. The cultures were washed with PBS and analyzed in a BD FACS-Canto (BD Biosciences) flow cytometer with the FACSDiva (BD) 6.1.3 software. Due to the size, host cells (infected and noninfected) and trypomastigotes were separately analyzed by flow cytometry. The median of fluorescence of oxidized DCF and the populations with active mitochondria were measured with excitation/emission at 488 nm/529 nm and […]. […]

T. cruzi amastigotes [1] = experiment: Amastigote growth inhibition assay (T. cruzi-LacZ, CPRG readout); assay type: cell-based; details: Trypanosoma cruzi, LLC-MK2, amastigotes in LLCMK2 cells, 72 h, 37°C, three independent assays
Experimental: T. cruzi (Tulahuen strain) was maintained in cultures of LLCMK2 cells and cultivated in RMPI supplemented with 10% fetal bovine serum (FBS) at 37°C, 5% CO2. The parasites used in proliferation and flow cytometry assays were genetically modified to express the enzyme β-galactosidase (T. cruzi-LacZ [9]). To illustrate the inhibition of parasite proliferation, a T. cruzi expressing GFP (G-GFP strain [10]) was used.
(§2) LLCMK2 cells were distributed in 96-well plates (5×10^4 cells/ml) and infected with T. cruzi-LacZ at a multiplicity of infection (MOI) of 10:1 (5×10^5 cells/ml). The cultures were incubated for 48 h, 37°C, and 5% CO2 and washed with phosphate buffered saline (PBS). Serial dilutions of compounds (starting from 10 μM) in RPMI were added to the cultures in duplicate and incubated for 72 h, 37°C,and 5% CO2. […] After incubation, the media were removed and followed by the reaction with chlorophenol red-β-D-galactopyranoside (CPRG) buffer (200 μM CPRG, 2% Trion X-100, and 50 mM MgCl2 in PBS) for 4 h, 37°C. The plates were read at 570 nm in ELISA reader (Synergy™ H1, Biotek). Three independent assays were performed.
(§3) The percentages of proliferation and cytotoxicity were calculated using the mean absorbance of the compound-free control and the absorbance of each treatment. The IC50 and the combination index (CI) were achieved using Compusyn software (http://www.combosyn.com/) and the selective index (CC50/IC50) was also determined. From CI values, synergistic (CI < 1), and antagonistic (CI > 1) interactions were identified. For oxidative stress and mitochondrial activity, data were analyzed by one-way ANOVA followed by a Dunnett's post hoc test (compared to nontreated groups) on GraphPad 5.0 software.

Cytotoxicity (MTT assay) = assay type: cell-based; details: rhesus monkey; LLCMK2 cells, 72 h, MTT assay
Experimental: (§4) The cytotoxic effects of the phenothiazinium dyes in LLCMK2 cells was measured by Thiazolyl Blue Tetrazolium Bromide (MTT) assay, as described in [12]. A suspension of LLCMK2 cells (5 × 10^4/ml) in RPMI supplemented with 10% FBS was distributed in 96-well plates and cultivated (37°C, 5% CO2) to the confluence. […] The cultures were incubated for 72 h, 37°C, and 5% CO2. For the measurement of the […], the media were carefully removed and an MTT solution (500 μg/ml MTT in PBS) was added. The reaction was performed for 4 h at 37°C, 5% CO2. After the reaction, the MTT solution was discarded and the formazan crystals solubilized with DMSO. The absorbance was measured in an ELISA reader (Synergy™ H1, Biotek) at 570 nm. The percentages of proliferation and cytotoxicity were calculated using the mean absorbance of the compound-free control and the absorbance of each treatment. The IC50 and the combination index (CI) were achieved using Compusyn software (http://www.combosyn.com/) and the selective index (CC50/IC50) was also determined. […] For oxidative stress and mitochondrial activity, data were analyzed by one-way ANOVA followed by a Dunnett's post hoc test (compared to nontreated groups) on GraphPad 5.0 software.

LLCMK2 cells = experiment: Cytotoxicity (MTT assay); assay type: cell-based; details: CC50 LLCMK2 / IC50 amastigotes
Experimental: as §4

T. cruzi trypomastigotes [2] = experiment: Mitochondrial membrane potential (JC-1, flow cytometry) in trypomastigotes; assay type: cell-based, Trypanosoma cruzi; details: 4 × IC50, 2 h
Experimental: as §1

T. cruzi amastigotes [3] = experiment: Drug combination assay against amastigotes (CPRG, Compusyn); assay type: cell-based; details: Trypanosoma cruzi
Experimental: as §2, §3
As references, isolated compounds of each combination were evaluated concomitantly in the same plate. The inhibition percentage was calculated in comparison to the nontreated group and the IC50 and CI values were achieved using Compusyn software.

T. cruzi trypomastigotes [4] = experiment: ROS measurement (DCFDA, flow cytometry) in trypomastigotes; assay type: cell-based, Trypanosoma cruzi; details: 4 × IC50, 2 h
Experimental: as §1

[5] = 72 h, read-out: IC50 (compound 1), compound 1 alone, evaluated in the same plate as the combination
[6] = 72 h, compound 2 alone, evaluated in the same plate as the combination, read-out: IC50 (compound 2)

| Structure (SMILES) | ROS production in noninfected cells (noninfected LLCMK2 cells) | IC50 (T. cruzi amastigotes [1]) [nM] | CC50 at 72 h (Cytotoxicity (MTT assay)) [nM] | SI (selectivity index, CC50/IC50) (LLCMK2 cells) | Mitochondrial membrane potential in trypomastigotes (T. cruzi trypomastigotes [2]) | IC50 (T. cruzi amastigotes [3]; [5]) [nM] | ROS production in trypomastigotes (T. cruzi trypomastigotes [4]) | IC50 (T. cruzi amastigotes [3]; [6]) [nM] | IC50 (T. cruzi amastigotes [3]; 72 h, compound 1 alone, evaluated in the same plate as the combination, read-out: IC50 (compound 1)) [nM] | IC50 (T. cruzi amastigotes [3]; 72 h, read-out: IC50 (compound 2), compound 2 alone, evaluated in the same plate as the combination) [nM] | IC50 (T. cruzi amastigotes [3]; read-out: IC50 (compound 2), compound 2 alone, evaluated in the same plate as the combination) [nM] |
| --- | --- | --- | --- | --- | --- | --- | --- | --- | --- | --- | --- |
| O=C(Cn1ccnc1[N+](=O)[O-])NCc1ccccc1 [BZ, Benznidazole] | increased ROS production | 3410 ± 380 | > 200000 | > 58.65 | did not affect mitochondria | 3320 | no ROS production was detected | – | – | – | – |
| Cc1cc(N(C)C)cc2[s+]c3cc(N(C)C)cc(C)c3nc12 [DMMB, 1,9–Dimethyl Methylene Blue] | – | 80 ± 20 | 4460 ± 230 | 51.26 | – | – | – | 71 | – | – | – |
| CN(C)c1ccc2nc3ccc(=[N+](C)C)cc-3sc2c1 [MB, Methylene Blue] | – | 440 ± 150 | 16800 ± 1180 | 37.40 | – | – | – | 477 | 560 | – | – |
| CC1=CC(=O)c2ccccc2C1=O [MN, Menadione] | increased ROS production | – | – | – | reduced the membrane potential | – | increased ROS production | – | – | – | – |
| CCNc1cc2[s+]c3cc(NCC)c(C)cc3nc2cc1C [NMB, New Methylene Blue] | – | 90 ± 10 | 4190 ± 1300 | 44.71 | – | 122 | – | 100 | – | – | – |
| Cc1cc2nc3ccc(N(C)C)cc3[s+]c2cc1N [TBO, Toluidine Blue O] | – | 270 ± 110 | 7930 ± 5220 | 28.61 | – | 381 | – | – | – | 322 | 322 |
